Reference: patent US6426229B1, “Chelating agent and detergent comprising the same” (Mitsubishi Rayon Co., Ltd., priority 1995, dated 2002)
Each block holds one compound with its values, some of them ahead of it.

Columns and labels:
[1] = Storage of aqueous solution or slurry for 60 days: HPLC analysis of components and appearance; format: physicochemical
[2] = Compression strength (hardening property) of powder stored under load for 2 months; format: physicochemical; conditions: for Compression strength after stored for 2 months: 20-30° C., relative humidity 40-70%
Protocol: Method for the Measurement of Compression Strength
(1) A test sample (500 g) is put in a poly-ethylene bag of 20 cm×20 cm in a room at a temperature of 20-30° C. and a relative humidity of 40-70%. The powder is levelled to an area of 20 cm×20 cm and air is forced out of the bag, and, then, the bag is sealed. This bag is further put in a kraft bag and this kraft bag is sealed.
(2) The kraft bag of (1) is placed horizontally on a flat plate and a plate is put thereon. […]
(3) With keeping the temperature of 20-30° C. and the relative humidity of 40-70%, the test sample is taken out after lapse of 2 months from the starting of application of load. Several test pieces (4 cm long×4 cm broad×2 cm high) are cut out from the sample.

[3] = Load 200 (table head [Kg]; text 200 g/cm^2)
[4] = Load 100 (table head [Kg]; text 100 g/cm^2)
[5] = Load 300 (table head [Kg]; text 300 g/cm^2)
[6] = after 2 months under the load of 200 [g/cm^2]

Appearance after kept for 60 days ([1]; keeping temperature 75° C.): Dark blue transparent aqueous solution
Content of the compound of the formula [I] in aqueous solution after kept for 60 days ([1]; keeping temperature 75° C.): 47.9 wt. %
Compound: O=C([O-])C[C@H](NCC(O)CN[C@@H](CC(=O)[O-])C(=O)[O-])C(=O)[O-].[Cu+2].[Na+].[Na+] [Example 128, copper disodium (S,S)-2-hydroxy-1,3-propanediamine-N,N′-disuccinate]

Appearance after kept for 60 days ([1]; keeping temperature 75° C.): Colorless transparent aqueous solution
Compound: CN(CC(=O)[O-])CC(=O)[O-].[Na+].[Na+] [Example 104, disodium N-methyliminodiacetate]

Appearance after kept for 60 days ([1]; keeping temperature 65° C.): Light yellow slurry
Content of the compound of the formula [I] in aqueous solution after kept for 60 days ([1]; keeping temperature 65° C.): 64.7 wt. %
Compound: C[C@@H](C(=O)[O-])N(CC(=O)[O-])CC(=O)[O-].[Na+].[Na+].[Na+] [Example 96, trisodium salt of (S)-α-alanine-N,N-diacetic acid]

Appearance after kept for 60 days ([1]; keeping temperature 75° C.): Dark blue transparent aqueous solution
Content of the compound of the formula [I] in aqueous solution after kept for 60 days ([1]; keeping temperature 75° C.): 38.7 wt. %
Compound: O=C([O-])C[C@H](NCC(O)CN[C@@H](CC(=O)[O-])C(=O)[O-])C(=O)[O-].[Cu+2].[Na+].[Na+] [compound 52, copper disodium (S,S)-2-hydroxy-1,3-propanediamine-N,N′-disuccinate, reference compound]

Content of the compound of the formula [I] in aqueous solution after kept for 60 days ([1]; keeping temperature 75° C.): 29.6 wt. %
Compound: CN(CC(=O)[O-])CC(=O)[O-].[Na+].[Na+] [compound 41, disodium N-methyliminodiacetate, reference compound]
Appearance after kept for 60 days ([1]; keeping temperature 75° C.): Light yellow transparent aqueous solution

Appearance after kept for 60 days ([1]; keeping temperature 70° C.): White slurry
Content of the compound of the formula [I] in aqueous solution after kept for 60 days ([1]; keeping temperature 70° C.): 78.5 wt. %
Compound: O=C([O-])C[C@@H](C(=O)[O-])N(CC(=O)[O-])CC(=O)[O-].[Na+].[Na+].[Na+].[Na+] [Example 98, tetrasodium salt of (S)-aspartic acid-N,N-diacetic acid]

Compression strength after stored for 2 months [2, 4]: 2.8 Kg/cm^2
Compound: O=C(O)C[C@H](NCCCN[C@@H](CC(=O)O)C(=O)O)C(=O)O [compound 24, (S,S)-1,3-propanediaminedisuccinic acid, reference compound]

Compression strength after stored for 2 months [2, 3]: 1.0 Kg/cm^2
Compound: O=C(O)C[C@H](NCC(O)CN[C@@H](CC(=O)O)C(=O)O)C(=O)O [Example 65, (S,S)-2-hydroxy-1,3-propanediaminedisuccinic acid]

Compression strength after stored for 2 months [2, 4]: 2.6 Kg/cm^2
Compound: CN(CC(=O)[O-])CC(=O)[O-].[Na+].[Na+] [compound 10, disodium N-methyliminodiacetate, reference compound]

Compression strength after stored for 2 months [2, 4]: 2.6 Kg/cm^2
Compound: C[C@@H](C(=O)O)N(CC(=O)O)CC(=O)O [compound 8, (S)-α-alanine-N,N-diacetic acid, reference compound]

Compression strength after stored for 2 months [2, 3]: 1.2 Kg/cm^2
Compound: CN(CC(=O)[O-])CC(=O)[O-].[Na+].[Na+] [Example 26, disodium N-methyliminodiacetate]

Compression strength after stored for 2 months [2, 4]: 1.3 Kg/cm^2
Compound: O=C([O-])CN(CCS(=O)(=O)[O-])CC(=O)[O-].[Na+].[Na+].[Na+] [Example 28, trisodium salt of taurine-N,N-diacetic acid]

Compression strength after stored for 2 months [2, 3]: 0.8 Kg/cm^2
Compound: C[C@@H](C(=O)O)N(CC(=O)O)CC(=O)O [Example 16, (S)-α-alanine-N,N-diacetic acid]

Compression strength after stored for 2 months [2, 3]: 1.3 Kg/cm^2
Compound: O=C([O-])C[C@H](NCCCN[C@@H](CC(=O)[O-])C(=O)[O-])C(=O)[O-].[Cu+2].[Na+].[Na+] [Example 83, copper disodium (S,S)-1,3-propanediaminedisuccinate]

Compression strength after stored for 2 months [2, 5]: 0.9 Kg/cm^2
Compound: C[C@@H](C(=O)O)N(CC(=O)O)CC(=O)O [Example 24, (S)-α-alanine-N,N-diacetic acid]

Compression strength after stored for 2 months [2, 3]: 1.2 Kg/cm^2
Compound: O=C([O-])C[C@H](NCC(O)CN[C@@H](CC(=O)[O-])C(=O)[O-])C(=O)[O-].[Na+].[Na+].[Na+].[Na+] [Example 50, tetrasodium (S,S)-2-hydroxy-1,3-propanediaminedisuccinate]

Compression strength after stored for 2 months [2, 5]: 1.2 Kg/cm^2
Compound: O=C([O-])C[C@H](NCC(O)CN[C@@H](CC(=O)[O-])C(=O)[O-])C(=O)[O-].[Na+].[Na+].[Na+].[Na+] [Example 60, tetrasodium (S,S)-2-hydroxy-1,3-propanediaminedisuccinate]

Compression strength after stored for 2 months [2, 4]: 1.0 Kg/cm^2
Compound: C[C@@H](C(=O)O)N(CC(=O)O)CC(=O)O [Example 20, (S)-α-alanine-N,N-diacetic acid]

Compression strength after stored for 2 months [2, 4]: 0.9 Kg/cm^2
Compound: O=C([O-])C[C@H](NCCCN[C@@H](CC(=O)[O-])C(=O)[O-])C(=O)[O-].[Na+].[Na+].[Na+].[Na+] [Example 54, tetrasodium (S,S)-1,3-propanediaminedisuccinate]

Second part, the compound before the results:

Compound: O=C([O-])CC(NCCNC(CC(=O)[O-])C(=O)[O-])C(=O)[O-].[Na+].[Na+].[Na+].[Na+] (centres unmarked) [Example 122, tetrasodium ethylenediamine-N,N′-disuccinate]
Appearance after kept for 60 days ([1]; keeping temperature 40° C.): White slurry
Content of the compound of the formula [I] in aqueous solution after kept for 60 days ([1]; keeping temperature 40° C.): 74.1 wt. %

Compound: O=C([O-])CC(NCCNC(CC(=O)[O-])C(=O)[O-])C(=O)[O-].[Na+].[Na+].[Na+].[Na+] (centres unmarked) [Example 117, tetrasodium ethylenediamine-N,N′-disuccinate]
Appearance after kept for 60 days ([1]; keeping temperature 75° C.): Colorless transparent aqueous solution
Content of the compound of the formula [I] in aqueous solution after kept for 60 days ([1]; keeping temperature 75° C.): 49.8 wt. %

Compound: O=C([O-])CCN[C@@H](CC(=O)[O-])C(=O)[O-].[Na+].[Na+].[Na+] [Example 95, trisodium salt of (S)-aspartic acid-N-monopropionic acid]
Appearance after kept for 60 days ([1]; keeping temperature 65° C.): Light yellow slurry
Content of the compound of the formula [I] in aqueous solution after kept for 60 days ([1]; keeping temperature 65° C.): 65.4 wt. %

Compound: O=C([O-])CN[C@@H](CC(=O)[O-])C(=O)[O-].[Na+].[Na+].[Na+] [Example 93, trisodium salt of (S)-aspartic acid-N-monoacetic acid]
Appearance after kept for 60 days ([1]; keeping temperature 65° C.): Light yellow slurry
Content of the compound of the formula [I] in aqueous solution after kept for 60 days ([1]; keeping temperature 65° C.): 63.7 wt. %

Compound: O=C([O-])CC(NCCNC(CC(=O)[O-])C(=O)[O-])C(=O)[O-].[Fe+3].[NH4+] (centres unmarked) [Example 76, iron ammonium ethylenediaminedisuccinate]
Compression strength after stored for 2 months [2, 3]: 1.1 Kg/cm^2

Compound: O=C([O-])C[C@H](NCCN[C@@H](CC(=O)[O-])C(=O)[O-])C(=O)[O-].[Cu+2].[Na+].[Na+] [compound 27, copper disodium (S,S)-ethylenediaminedisuccinate, reference compound]
Compression strength after stored for 2 months [2, 4]: 2.8 Kg/cm^2

Compound: O=C(O)C[C@H](NCCN[C@@H](CC(=O)O)C(=O)O)C(=O)O [Example 71, ethylenediaminedisuccinic acid]
Compression strength after stored for 2 months [2, 5]: 1.2 Kg/cm^2

Compound: O=C([O-])CN(CC(=O)[O-])c1ccccc1C(=O)[O-].[Fe+3] [Example 43, iron salt of anthranilic acid-N,N-diacetic acid]
Compression strength after stored for 2 months [2, 3]: 0.9 Kg/cm^2

Compound: O=C([O-])CN[C@@H](CC(=O)[O-])C(=O)[O-].[Na+].[Na+].[Na+] [Example 1, trisodium salt of (S)-aspartic acid-N-monoacetic acid]
compression strength of the test piece [2, 6]: 1.2 kg/cm^2
state of the test piece after storage [2, 6]: it could be disintegrated without any special grinding treatment

Compound: iron salt of anthranilic acid-N,N-diacetic acid [Example 45]
Compression strength after stored for 2 months [2, 5]: 0.8 Kg/cm^2

Compound: O=C([O-])CC(NCCCNC(CC(=O)[O-])C(=O)[O-])C(=O)[O-].[Na+].[Na+].[Ni+2] [Example 84, nickel disodium (S,S)-1,3-propanediaminedisuccinate]
Compression strength after stored for 2 months [2, 3]: 1.0 Kg/cm^2

Compound: O=C([O-])CCN[C@@H](CC(=O)[O-])C(=O)[O-].[Na+].[Na+].[Na+] [Example 6, trisodium salt of (S)-aspartic acid-N-monopropionic acid]
Compression strength after stored for 2 months [2, 4]: 1.2 Kg/cm^2

Compound: O=C(O)C[C@H](NCCN[C@@H](CC(=O)O)C(=O)O)C(=O)O [Example 61, ethylenediaminedisuccinic acid]
Compression strength after stored for 2 months [2, 3]: 0.9 Kg/cm^2

Compound: O=C(O)CC(NCCCNC(CC(=O)O)C(=O)O)C(=O)O (centres unmarked) [Example 63, 1,3-propanediaminedisuccinic acid]
Compression strength after stored for 2 months [2, 3]: 1.1 Kg/cm^2

Compound: O=C([O-])C[C@H](NCCN[C@@H](CC(=O)[O-])C(=O)[O-])C(=O)[O-].[Na+].[Na+].[Na+].[Na+] [compound 17, tetrasodium (S,S)-ethylenediaminedisuccinate, reference compound]
Compression strength after stored for 2 months [2, 4]: 2.9 Kg/cm^2

Compound: O=C([O-])CN(CC(=O)[O-])c1ccccc1C(=O)[O-].[Na+].[Na+].[Na+] [Example 33, trisodium salt of anthranilic acid-N,N-diacetic acid]
Compression strength after stored for 2 months [2, 5]: 0.9 Kg/cm^2

Compound: O=C([O-])C[C@H](NCCN[C@@H](CC(=O)[O-])C(=O)[O-])C(=O)[O-].[Fe+3].[NH4+] [Example 79, iron ammonium (S,S)-ethylenediaminedisuccinate]
Compression strength after stored for 2 months [2, 3]: 0.9 Kg/cm^2

Compound: iron salt of anthranilic acid-N,N-diacetic acid [compound 15, reference compound]
Compression strength after stored for 2 months [2, 4]: 2.5 Kg/cm^2
